# Results: BindingDB's records for doi:10.1021/jm00119a003 (Northeastern University, 1988)
# Molecular target: D(1A) dopamine receptor (Canis familiaris)
# Test: Ability to inhibit the binding of [3H]-SCH- 23390 to canine striatal membrane
structure (smiles),measurement,value
"CN1CCc2cc(I)c(O)cc2C(c2ccc(N=[N+]=[N-])cc2)C1 (stereo unspecified) [5-(4-Azido-phenyl)-8-iodo-3-methyl-2,3,4,5-tetrahydro-1H-benzo[d]azepin-7-ol]",Kd,0.15 nM
